Measurements as given in ChEMBL document CHEMBL1135473, “Synthesis of (+)-cis-N-(4-isothiocyanatobenzyl)-N-normetazocine, an isothiocyanate derivative of N-benzylnormetazocine as acylant agent for the sigma(1) receptor” (J Med Chem, 2002).

Key:
[1] = target: Sigma non-opioid intracellular receptor 1 (Homo sapiens) (UniProt Q99720); settings: Cavia porcellus; 200 nM
[2] = target: Sigma non-opioid intracellular receptor 1 (Homo sapiens) (UniProt Q99720); settings: Cavia porcellus; 1 uM
[3] = target: Sigma non-opioid intracellular receptor 1 (Homo sapiens) (UniProt Q99720); settings: Cavia porcellus; 0.1 uM
[4] = target: Sigma non-opioid intracellular receptor 1 (Homo sapiens) (UniProt Q99720); settings: Cavia porcellus; 5 uM
[5] = target: Sigma non-opioid intracellular receptor 1 (Homo sapiens) (UniProt Q99720); settings: Cavia porcellus; 0.1 uM; remark: listed apart in the source
[6] = target: Sigma non-opioid intracellular receptor 1 (Homo sapiens) (UniProt Q99720); settings: Cavia porcellus; 0.1 uM; remark: listed apart in the source
Description: Maximum binding capacity against Sigma opioid receptor type 1 at 0.1 uM BNIT

[7] = target: Sigma non-opioid intracellular receptor 1 (Homo sapiens) (UniProt Q99720); settings: Cavia porcellus; 0.1 uM; remark: listed apart in the source
Description: Maximum binding capacity against Sigma opioid receptor type 2 at 0.1 uM BNIT

Sequence of Sigma non-opioid intracellular receptor 1 (Homo sapiens) (Q99720 whole entry): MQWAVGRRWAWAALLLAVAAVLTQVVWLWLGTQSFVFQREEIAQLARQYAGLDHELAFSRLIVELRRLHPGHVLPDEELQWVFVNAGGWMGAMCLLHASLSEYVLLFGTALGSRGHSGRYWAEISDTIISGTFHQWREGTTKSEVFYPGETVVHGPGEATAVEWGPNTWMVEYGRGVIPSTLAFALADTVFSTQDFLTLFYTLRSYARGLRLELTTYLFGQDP

Row | SMILES | Bmax [1] | Bmax [2] | Kd1 [3] | Bmax [4] | Kd2 [5] | Bmax1 [6] | Bmax2 [7]
1 | CC(C)=CCN1CC[C@]2(C)c3cc(O)ccc3C[C@H]1[C@H]2C | 1120 fmol/mg |  |  |  |  |  | 
2 | Cc1ccccc1NC(=N)Nc1ccccc1C |  | 1010 fmol/mg | 12.8 nM | 957 fmol/mg | 21.4 nM | 674 | 1330
